Measurements from PubChem BioAssay AID179 (DTP/NCI, 2004).
Values joined by “and” are separate entries in the source; they are usually repeats but may differ in a detail not shown here. Identical values can stand only once. Active and inactive are the calls of the source.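 The calls were made as follows: active = compounds giving half or more protection of infected cells from virus-caused growth loss, again on retest; inactive = the rest.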

System: CEM cells HIV-1 protection, formazan growth assay
Assay: NCI AIDS Antiviral Assay
Conditions: for IC50: measured here: growth of uninfected CEM cells
Summary of the method: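 Human CEM cells, uninfected and HIV-1-infected, received five drug concentrations, and growth was read by soluble formazan assay. Compounds giving at least 50% protection were retested; reproducible 100% protection defined confirmed active.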

Structure (SMILES)	EC50 [µM]	IC50	outcome
CC1=Nc2ccccc2C12C(c1ccccc1)C(c1ccccc1)C(=O)N1c3ccccc3CC12 (stereo not given)	> 79.4	> 79.4 µM	
C=C1CC[N+]2(CCCCCC)CCCC12 (stereo not given)	> 871	126 µM	
CCCCCCCCN(/N=C/c1c2c(O)c3c(O)c(C)c4c(c3c1O)C(=O)C(C)(O/C=C\C(OC)C(C)C(OC(C)=O)C(C)C(O)C(C)C(O)C(C)/C=C/C=C(C)C(=O)N2)O4)C12CC3CC(CC(C3)C1)C2 (stereo not given)	> 200	8.91 µM	
O=S1Nc2c(Cl)cc(Cl)c(Cl)c2S1 (stereo not given)	> 129	> 129 µM	
Cc1cc2c(Br)cc(Br)c(O)c2nc1C(=O)c1ccccc1	> 4.79	> 4.79 µM	
CCOC(=O)c1c(N2CCCC2)ncn(C)c1=S	> 200	> 200 µM	
COCCOCCOCCOc1cccc2c1C(=O)c1cccc(OCCOCCOCCOC)c1C2=O			inactive
CC1CC/C(=C\c2ccc(F)cc2)C2=C1C(c1ccc(F)cc1)N1C(=O)CSC1=N2 (stereo not given)	> 200	75.9 µM	
c1ccc(-c2cc(=[N+]3CCOCC3)c3ccccc3o2)cc1			inactive
CS(=O)(=O)Nc1ccc2c(c1)N(S(C)(=O)=O)CC2CCl (stereo not given)	> 200	166 µM	
CCCc1cc(=O)oc2c3c(c4c(c12)OC(C)(C)CC4)O[C@@H](C)[C@H](C)[C@H]3O	> 200	33.1 µM	inactive
CCCCCCCCCCCCCCCCCCOP(=O)([O-])OC1CC[N+](C)(C)CC1	> 204	1.91 µM	
CCCCCCCCCCCCSC(=S)c1c(C)[nH]n(-c2ccccc2)c1=O	> 42.7	15.8 µM	
CC1(C)CC2C(=O)c3ccccc3NC2c2ccccc21 (stereo not given)	> 2	0.269 µM	
CN(C)/N=C1\CC(c2ccccc2)C(C#N)(C#N)C1(C#N)C#N (stereo not given)	> 200	5.62 µM	
ClC(Cl)[Si]12OCCN(CCO1)CCO2			inactive
CC(=O)Oc1ccn2nc(C)c(Cc3c(C)nn4ccc(OC(C)=O)cc34)c2c1	> 200	28.2 µM	
Nc1o[nH]c(=O)c1C1CCCCC1	> 200	> 200 µM	
Cc1ccc(S(=O)(=O)N/N=C(\C(=O)Nc2cccc([N+](=O)[O-])c2)c2nc3ccc([N+](=O)[O-])cc3[nH]c2=O)cc1	> 123	115 µM	
COc1ccc(-c2nnc(-c3ccncc3)o2)cc1	> 200	> 200 µM	
O=C(CP(=O)(O)O)c1cccs1	> 1200	> 1200 µM	
Cc1cn(C2O[C@@H]3CN(O)[C@H](C)[C@]3(O)C2O)c(=O)[nH]c1=O (stereo not given in full)	> 200	> 200 µM	
CC1=NN(c2ccccc2)[As]2ON=C(c3ccc(Cl)cc3)C12 (stereo not given)			inactive

Structure (SMILES)	EC50 [µM]	IC50	outcome
CCCOc1cnc([C@H]2CCC3[C@@H]4CC=C5C[C@@H](O)CC[C@]5(C)C4CC[C@@]32C)s1 (stereo not given in full)	> 60.3	> 60.3 µM	
CC(=O)OC1C(COC(=O)c2ccccc2)OC(Nc2ncc(-c3ccc(Br)cc3)s2)C(OC(=O)c2ccccc2)C1OC(=O)c1ccccc1 (stereo not given)	> 200	20.4 µM	
COc1cc2c3c(c1OC)C(=O)C(=O)C1=C3N(CCC1)CC2			inactive
COc1cc(OC)c(OC)cc1/C=N/NC(=O)N/N=C/c1cc(OC)c(OC)cc1OC			inactive
COC(=O)c1nn2ccc3ccccc3c2c1C(=O)OC	> 200	93.3 µM	
COc1ccc(C2(c3ccc(OC)cc3)N=NC3(C)CC32)cc1 (stereo not given)	> 91.2	89.1 µM	
CCCOC(=O)c1cc(C(=CCC[C@H]2CC[C@@]3(C)[C@@H](CC[C@@H]4[C@@H]3CC[C@]3(C)[C@@H](C(C)CCCC(C)C)CC[C@@H]43)C2)c2cc(Cl)c(O)c(C(=O)OCCC)c2)cc(Cl)c1O (stereo not given in full)	> 151	> 151 µM	
CCOP(=O)(OCC)/C(F)=C/c1ccc(F)cc1			inactive
O=C(CC(c1ccccc1)c1c(O)c2ccccc2oc1=O)c1ccccc1 (stereo not given)	> 200	83.2 µM	
Cn1c(=O)c2[nH]c(Nc3cccc(Cl)c3)nc2n(C)c1=O	> 200	10.7 µM	
c1csc(-c2cc(-c3cccs3)c(-c3ccsc3)s2)c1	> 200	33.1 µM	
OC[C@H]1N[C@H](CO)[C@@H](O)[C@H]1O	> 200	148 µM	
O=C1OC[C@@H]2CCCN2Cc2ccccc21	> 87.1	> 87.1 µM	
CC1=C(C(=O)NCc2ccccc2)C(c2ccc(Cl)c(Cl)c2)C(C(=O)NCc2ccccc2)=C(C)N1			inactive
CC(C)S(=O)(=O)O	> 200	> 200 µM	
CCOC(=O)c1nc2ccc(C(F)(F)F)cc2nc1Oc1ccc(OC)cc1	> 200	> 200 µM	
O=S(=O)(O)c1ccc(N=Nc2ccc(N=Nc3c(S(=O)(=O)O)cc4cc(S(=O)(=O)O)cc(O)c4c3O)cc2)cc1			inactive
COC(Cc1ccccc1)NC(C)=O (stereo not given)	> 200	186 µM	
CC1=CC2c3c(O)cc(-c4cc5ccc(O)cc5o4)cc3OC3(c4ccc(O)cc4O)Oc4cc(O)ccc4[C@H](C1)C23 (stereo not given in full)	> 22.9	2.04 µM	
O=C1c2ccccc2C2(O)Nc3cc(O)ccc3C12O (stereo not given)	> 933	661 µM	
O=Cc1ccc(-c2cccc([N+](=O)[O-])c2)s1	> 200	166 µM	
COc1cc(/C=N/NC2=NCCCN2)ccc1O	> 200	> 200 µM	
Clc1ccc2c(SCC3CO3)c3ccccc3nc2c1 (stereo not given)	> 200	2.57 µM	

Structure (SMILES)	EC50 [µM]	IC50	outcome
COC1CCC(OS(C)(=O)=O)C(C)O1 (stereo not given)	> 200	110 µM	
CC#CCC1CCC(OCC)=CC1=O (stereo not given)			inactive
COc1cc(OCc2ccccc2)c(O)cc1-c1coc2cc(OCc3ccccc3)ccc2c1=O	> 200	4.27 µM	
COC(=O)C1(C)CCCC2(C)c3cc(OC)ccc3C(=O)C(Cl)C12 (stereo not given)	> 200	30.2 µM	
[N-]=[N+]=Nc1cc(=O)n(-c2ccccc2)c2ccccc12			inactive
Cn1c(=O)c2c(ncn2CC(=O)N/N=C2\SCC(=O)N2Cc2ccccc2)n(C)c1=O	> 74.1	> 74.1 µM	
CN(C)CCNC(=O)c1noc2c1CSc1ccccc1-2	> 407	28.2 µM	
O=c1cc/c(=N/O)c(=O)/c1=N\O	17.4	151 µM	
CC(C)OP(=O)(OC(C)C)/C(=N/Nc1ccc([N+](=O)[O-])cc1)NNC(=O)c1ccccc1	> 40.7	17 µM	
CN1C2CCC1/C(=C/c1cccc3c1OCO3)C(=O)/C2=C\c1cccc2c1OCO2	> 6.76	> 6.76 µM	
CC(=O)NC(CCCCNCc1ccccc1)C(=O)NCc1ccccc1 (stereo not given)	> 676	> 676 µM	
S=CN1CCN(C=S)CC1			inactive
CC(C)=C1CC(C)(C)N=C1CCC1=NC(C)(C)CC1=C(C)C	> 50.1	28.2 µM	
c1ccc2c(OCCSCCCCCCCCCCSCCOc3cccc4ccccc34)cccc2c1	> 5.01	> 5.01 µM	
Cc1cc(-n2nnnc2-c2ccc([N+](=O)[O-])cc2)no1	> 5.01	4.37 µM	
Cc1ccc(Sc2ccccc2[N+](=O)[O-])cc1			inactive
O=c1ccc(=O)n(-c2ccc(Cl)cc2)[nH]1	> 162	> 162 µM	
CC(=O)c1c2c(cc3c1CC1(Cc4cc5c(cc4C1=O)CCC5)C3)CCC2 (stereo not given)	> 200	13.5 µM	
COc1ccc(/C=C/C(=O)c2sc(-c3cccnc3)nc2C)cc1	> 21.4	> 21.4 µM	
S=C1N/N=C/NN/C=N/N1	> 562	282 µM	
O=C1C(N=Nc2ccc([N+](=O)[O-])cc2)Sc2nc3ccccc3n21 (stereo not given)	> 200	178 µM	
COc1ccc(/C=C2/N=C(N/N=C\C(O)C(O)C(O)C(O)CO)NC2=O)cc1 (stereo not given)		77.6 µM and 112 µM	
CCN(CC)CCCCC1CCN(CC(=O)N2CC(C)C(=O)Nc3ccccc32)CC1 (stereo not given)	> 251	> 251 µM	

Structure (SMILES)	EC50 [µM]	IC50	outcome
COc1ccccc1C(N)c1ccccc1 (stereo not given)	> 501	89.1 µM	
Cc1nccc2c(C(=O)O)c(C(=O)O)[nH]c12	> 170	> 170 µM	
O=[N+]([O-])c1cc2ccc1OCc1cccc(n1)COc1ccc(cc1[N+](=O)[O-])C=NCCCCCCCCN=C2	> 200	> 200 µM	
O=C(/C=C\c1ccc(Cl)c(Cl)c1)c1ccc(Cl)cc1Cl	> 14.5	> 14.5 µM	
CC(C)OP(=O)(OC(C)C)c1ccc2c(c1)OCCOCCOCCOCCO2	> 200	> 200 µM	
c1ccc(C2ON2CCCN2OC2c2ccccc2)cc1 (stereo not given)	> 200	> 200 µM	
CC[n+]1c(/C=C/c2ccc(N(CCCl)CCCl)cc2)ccc2cc(Br)ccc21			inactive
C=C1C[C@@H]2C[C@@H](C)CC(O)[C@]2(CCCN)C1O (stereo not given in full)			inactive
O[C@H]1[C@H]2c3cc4c(cc3CN3CCC(=C[C@@H]1O)[C@H]23)OCO4	> 2	0.372 µM	
O=C(NNc1nc2ccc(Cl)cc2s1)c1cnc2n(c1=O)CCS2	> 200	102 µM	
CN(C(=O)C12C3C4C1C1C2C3C41C(=O)C(C)(C)C)C(C)(C)C (stereo not given)	> 6.61	> 6.61 µM	
N=c1nnc(=O)c2c(s1)-n1ncc(C(=O)O)c1NN2	> 81.3	> 81.3 µM	
CC1CC[C@@H](C(C)C)[C@H](Oc2nnc(C3OC(CO)C(O)C3O)o2)C1 (stereo not given in full)	> 200	> 200 µM	
COC(=O)c1ccc(NCc2cc(OC)ccc2OC)cc1	> 200	24 µM	
Nc1onc2c1Cc1c(noc1N)-c1ccccc1-2	> 200	166 µM	
CCOC(=O)/C(=C/c1ccc(F)cc1)C(=O)c1ccccc1	> 17.4	> 17.4 µM	
CCOP(=O)(OCC)c1cc2cc(O)ccc2oc1=O	> 200	> 200 µM	
CC(=O)Oc1ccc(N2C(=O)C3c4[nH]c5ccccc5c4C4CCC(C(C)(C)C)CC4C3C2=O)cc1 (stereo not given)	> 200	9.77 µM	
C/C(CC1C2CCCC1C2)=N\NC(N)=O (stereo not given)	> 100	> 100 µM	
CCOC(=O)[C@@H](NC(=O)OC(C)(C)C)[C@@H](O)C(=O)OCC	> 200	> 200 µM	
CCC1(OC(=O)CNC)C(=O)OCc2c1cc1n(c2=O)Cc2cc3ccccc3nc2-1 (stereo not given)	> 10	0.00977 µM	
